Assay [1] concerns spontaneous hypertensive rats (SHR). In words: Hypotensive effect on spontaneous hypertensive rats (intravenously) (Referential Example 1)-3). The format is in vivo. The settings on record: Rattus norvegicus, iv, anesthetized SHR, dose descending mean blood pressure by 20%; read-out: ED₂₀ (mg/kg, i.v.). The protocol:
Rats were anesthetized with urethane-α-chloralose (1 g/kg - 25 mg/kg; intraperitoneally). Mean blood pressure was measured by a pressure transducer through a cannula inserted into the carotid artery. The compound was cumulatively administered every 30 minutes through the cannula inserted into the jagular vein. The change in blood pressure was expressed as percent of the blood pressure before the administration of the compound. And the ED₂₀ value, which was the dose required for descending blood pressure to an extent of 20%, was calculated from the dose-response curve.

The test system of the next assay is potassium channel. In words: Potassium channel activating effect (86Rb efflux from rat thoracic aorta). The settings on record: compound 10⁻⁴ M for 8 minutes, percent of the efflux before application. On the procedure: Male Wistar rats (weighing 250-350 g) were dehematized to death, and thoracic aortae were rapidly isolated. The aorta was opened along the longitudinal axis to prepare a flat sheet. The preparation was loaded with ⁸⁶Rb in the Krebs-Ringer solution which contained ⁸⁶Rb in the concentration of 10 µCi/ml and was gassed with 95% O₂ - 5% CO₂ at 37°C for 2 hours. The preparation was then transferred to a Krebs-Ringer solution not containing ⁸⁶Rb, and washed to remove excess radioactivity for 18 minutes by refreshing the solution every 2 minutes. Finally the preparation was placed into a Krebs-Ringer solution containing each compound (10⁻⁴ M) for 8 minutes.
The amount of ⁸⁶Rb efflux from the preparation in each period was determined with a γ-counter.
The increment in efflux rate during the application of the compound was expressed as percent of the efflux before the application of the compound.

Assay [2] has as its system isolated rat aortae. In words: Vasorelaxing effect on the isolated rat aortae (Referential Example 1)-1). The settings on record: inhibition of contraction induced by 40 mM KCl. The protocol: (§1) The compounds of the present invention were tested for their physiological activities by measuring the tension of isolated rat aortae isometrically.
Thoracic aortae obtained from male Wistar rats (weighing 250-350 g) were cut into ring segments about 3 mm long. The ring preparation was placed in an organ bath filled with 10 ml of Krebs-Ringer solution that was maintained at 37°C and gassed with 95% O₂ - 5% CO₂.
The preparation in the organ bath was allowed to equilibrate under resting tension of 1 g. After equilibration period, the solution in the organ bath was replaced with an isotonic solution containing 40 mM KCl to contract the preparation.
(§2) After the contraction induced by KCl had reached plateau, the concentration-response relationship for the test compound was determined by means of cumulative addition.
(§3) The relaxation response of the test compounds was expressed as the percent inhibition of the contraction induced by KCl, and the IC₅₀ value, which is a concentration required for inhibiting the contraction induced by KCl to an extent of 50%, was calculated by the Probit method from the concentration-response curve.

Assay [3] deals with isolated rat aortae. The experiment in a line: Vasorelaxing effect on the isolated rat aortae (Referential Example 2)-1). The settings on record: inhibition of contraction induced by 40 mM KCl, read-out: IC₅₀ Value. On the procedure: as §1
Thoracic aortae obtained from male Wistar rats (weighing 250-350 g) were cut into ring segments about 3 mm long. The ring preparation was placed in an organ bath filled with 10 ml of Krebs-Ringer solution which was maintained at 37°C and gassed with 95% O₂ - 5% CO₂.
The preparation in the organ bath was allowed to equilibrate under resting tension 1 g. After equilibration period, the solution in the organ bath was replaced with an isotonic solution containing 40 mM KCl to contract the preparation.
as §2, §3

Consider `N#CNC(=NCc1ccccc1)c1cccnc1` [(17), N-cyano-N'-benzyl-3-pyridinecarboximidamide], for which the ED20 in assay [1] came out at 0.25 mg/kg. In addition, the “Increment of Efflux (%)” value in the assay with potassium channel came to 135.41%. For the same molecule, the IC50 in the assay with isolated rat aortae [2] is 66 µM.

Take `N#CNC(=NCCc1ccccc1)c1cccnc1` [(27), N-cyano-N'-(2-phenylethyl)-3-pyridinecarboximidamide]: the ED20 in assay [1] came to 0.074 mg/kg. Moreover, the “Increment of Efflux (%)” value in the assay with potassium channel worked out at 206.61%. Also, in the assay with isolated rat aortae [2], the IC50 is 40 µM.

Consider `N#CNC(=NCCc1ccccc1Cl)c1cccnc1` [(29), N-cyano-N'-[2-(2-chlorophenyl)ethyl]-3-pyridinecarboximidamide], for which, in assay [1], the ED20 was determined as 0.013 mg/kg. Also, the IC50 in the assay on isolated rat aortae [2] amounted to 38 µM. As for `N#CNC(=NCCO[N+](=O)[O-])c1ccncc1` [(41), N-cyano-N'-(2-nitroxyethyl)-4-pyridinecarboximidamide], in assay [1], the ED20 was 0.13 mg/kg. Moreover, the “Increment of Efflux (%)” value in the assay on potassium channel is on record as 126.88%. For the same molecule, the IC50 in the assay on isolated rat aortae [2] was found to be 12 µM. In the case of `N#CNC(=NCCc1ccccc1)c1cnc2ccccc2c1` [(60), N-cyano-N′-(2-phenylethyl)-3-quinolinecarboximidamide], in the assay on isolated rat aortae [3], the IC50 was determined as 6.1 µM. Still for that read-out and setting: under `N#CNC(=NCCO[N+](=O)[O-])c1cnccn1` [(61), N-cyano-N′-(2-nitroxyethyl)pyrazinecarboximidamide] stands 53 µM; under `N#CNC(=NCCc1ccccc1)c1ccco1` [(63), N-cyano-N′-(2-phenylethyl)-2-furancarboximidamide], 18 µM; under `N#CNC(=NCCO[N+](=O)[O-])c1ccoc1` [(64), N-cyano-N′-(2-nitroxyethyl)-3-furancarboximidamide], 8 µM.

Consider `N#CNC(=NCCc1ccccc1)c1ccoc1` [(65), N-cyano-N′-(2-phenylethyl)-3-furancarboximidamide], for which the IC50 in the assay with isolated rat aortae [3] was found to be 94 µM.

In the case of `N#CNC(=NCCc1ccccc1)c1cccs1` [(67), N-cyano-N′-(2-phenylethyl)-2-thiophenecarboximidamide], the IC50 with isolated rat aortae [3] is 19 µM. Same read-out and setting: under `N#CNC(=NCCc1ccccc1)c1ccsc1` [(68), N-cyano-N′-(2-phenylethyl)-3-thiophenecarboximidamide] stands 92 µM; under `N#CNC(=NCCc1ccccc1)c1ccc(C#N)cc1` [(69), N-cyano-N′-(2-phenylethyl)-4-cyanobenzenecarboximidamide], 40 µM; under `CSC(=NC#N)NCCO[N+](=O)[O-]` [(70), 3-Cyano-2-methyl-1-(2-nitroxyethyl)-isothiourea], 4.3 µM. Regarding `N#CNC(=NCCO[N+](=O)[O-])c1ccccn1` [Compound (1), N-cyano-N'-(2-nitroxyethyl)-2-pyridinecarboximidamide], the ED20 in assay [1] turned out to be 0.037 mg/kg. In addition, in the assay on isolated rat aortae [2], the IC50 was 4.6 µM. In the case of `N#CNC(=NCCO[N+](=O)[O-])c1cnc2ccccc2c1` [Compound (59), N-cyano-N′-(2-nitroxyethyl)-3-quinolinecarboximidamide], the IC50 in the assay on isolated rat aortae [3] stood at 24 µM.

The values are drawn from patent EP0388528B1, “Carboximidamide derivatives” (KIRIN BEER KABUSHIKI KAISHA, priority 1988, dated 1990).
